Literature values in patent publication US8128952B2, “Ligand-mediated controlled drug delivery” (Clemson University Research Foundation, priority 2005, dated 2012).

Target: human growth hormone (hGH) (Homo sapiens, UniProt P01241)
Settings: interaction between hGH and Zn-EDTA

Sequence of human growth hormone (hGH) (P01241 27-217): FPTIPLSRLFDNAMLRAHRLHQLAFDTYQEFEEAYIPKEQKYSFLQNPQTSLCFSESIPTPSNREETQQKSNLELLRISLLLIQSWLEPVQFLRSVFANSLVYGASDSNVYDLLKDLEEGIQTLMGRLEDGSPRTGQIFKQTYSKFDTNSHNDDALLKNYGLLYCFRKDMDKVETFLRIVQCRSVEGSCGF

Kd: 380 µM
SMILES: O=C([O-])CN(CCN(CC(=O)O)CC(=O)O)CC(=O)[O-].[Zn+2] [Zn-EDTA, Zn-ethylenediamine tetraacetic acid]
